Type in all cases: functional
One test relates to Acremonium chrysogenum. The test can be described thus: Antifungal activity against Acremonium chrysogenum isolates after 48 hrs by broth microdilution method. As to conditions: Hapsidospora chrysogena. A general note: Broth dilution looks for growth in wells or tubes with falling amounts of substance.
In another test the test system is Candida albicans. The test can be described thus: Antifungal activity against Candida albicans ATCC 10231 after 48 hrs by broth microdilution method.
The test system of another test is Aspergillus restrictus. Put plainly: Antifungal activity against Aspergillus restrictus isolates after 48 hrs by broth microdilution method.
The test system of a further test is Aspergillus fumigatus. The test can be described thus: Antifungal activity against Aspergillus fumigatus isolates after 48 hrs by broth microdilution method.
The subject of a further test is Penicillium chrysogenum. Put plainly: Antifungal activity against Penicillium chrysogenum isolates after 48 hrs by broth microdilution method.
The next test has as its system Saccharomyces cerevisiae. Put plainly: Antifungal activity against Saccharomyces cerevisiae ATCC 9763 after 48 hrs by broth microdilution method.
For another test, the system named is Trueperella pyogenes. The test can be described thus: Antibacterial activity against Corynebacterium pyogenes ATCC 19411 after 24 hrs by broth microdilution method. The note with it: ATCC 19411, 24 h.
For the next test, the system named is Salmonella enterica. The test can be described thus: Antibacterial activity against Salmonella enterica ATCC 13076 after 24 hrs by broth microdilution method. As to conditions: ATCC 13076, 24 h.
Test [1] concerns Klebsiella pneumoniae. Put plainly: Antibacterial activity against Klebsiella pneumoniae clinical isolate after 24 hrs by broth microdilution method.
In the next test the test system is Proteus vulgaris. The test can be described thus: Antibacterial activity against Proteus vulgaris ATCC 8427 after 24 hrs by broth microdilution method. As to conditions: ATCC 8427, 24 h.
Another test deals with Bacillus subtilis. The test can be described thus: Antibacterial activity against Bacillus subtilis ATCC 6633 after 24 hrs by broth microdilution method. The note with it: ATCC 6633, 24 h.
The subject of a further test is Pseudomonas aeruginosa. The test can be described thus: Antibacterial activity against Pseudomonas aeruginosa ATCC 9027 after 24 hrs by broth microdilution method. The note with it: ATCC 9027, 24 h.
The next test relates to Bacillus cereus. Put plainly: Antibacterial activity against Bacillus cereus food isolate after 24 hrs by broth microdilution method.
The test system of test [2] is Escherichia coli. The test can be described thus: Antibacterial activity against Escherichia coli food isolate after 24 hrs by broth microdilution method.
A further test concerns Micrococcus luteus. The test can be described thus: Antibacterial activity against Sarcina lutea food isolate after 24 hrs by broth microdilution method.
The subject of test [3] is Staphylococcus aureus. Put plainly: Antibacterial activity against Staphylococcus aureus ATCC 25923 after 24 hrs by broth microdilution method. As to conditions: ATCC 25923, 24 h.
Test [4] deals with Staphylococcus aureus. The test can be described thus: Antibacterial activity against Staphylococcus aureus food isolate after 24 hrs by broth microdilution method.
Test [5] has as its system Staphylococcus aureus. The test can be described thus: Antibacterial activity against Staphylococcus aureus ATCC 6538 after 24 hrs by broth microdilution method. As to conditions: ATCC 6538, 24 h.
The subject of test [6] is Escherichia coli. Put plainly: Antibacterial activity against Escherichia coli clinical isolate after 24 hrs by broth microdilution method.
For test [7], the system named is Klebsiella pneumoniae. Put plainly: Antibacterial activity against Klebsiella pneumoniae ATCC 10031 after 24 hrs by broth microdilution method. The note with it: ATCC 10031, 24 h.
Test [8] relates to Escherichia coli. The test can be described thus: Antibacterial activity against Escherichia coli ATCC 25922 after 24 hrs by broth microdilution method. As to conditions: ATCC 25922, 24 h.

Values after ≈ are worked out from the molar mass of the structure shown. Some results are limits rather than exact numbers.

With NYSTATIN, the minimum inhibitory concentration (MIC) amounted to 0.195 µg/mL in the test with Acremonium chrysogenum; 6.25 µg/mL against Candida albicans; 0.781 µg/mL against Aspergillus restrictus; 0.195 µg/mL in the test with Aspergillus fumigatus; 0.39 µg/mL against Penicillium chrysogenum; 12.5 µg/mL in the test with Saccharomyces cerevisiae.

Take `COC(=O)[C@]1(C)CC[C@H](OC(C)=O)[C@]2(C)c3c(O)cc(C(C)C)cc3[C@H](O)[C@@H](OC(C)=O)[C@H]21` [EUROABIENOL]: the minimal bactericidal concentration (MBC) in the test on Trueperella pyogenes came out at 1430 µg/mL (≈ 3100 µM); in the test with Salmonella enterica, 1430 µg/mL (≈ 3100 µM); in the test with Klebsiella pneumoniae [1], 716 µg/mL (≈ 1550 µM); in the test on Proteus vulgaris it was 5740 µg/mL (≈ 12400 µM); against Bacillus subtilis, 2870 µg/mL (≈ 6200 µM); with Pseudomonas aeruginosa, 2870 µg/mL (≈ 6200 µM). Further, the MBC was 716 µg/mL (≈ 1550 µM) against Bacillus cereus; 5740 µg/mL (≈ 12400 µM) against Escherichia coli [2]; 179 µg/mL (≈ 387 µM) in the test with Micrococcus luteus; 5740 µg/mL (≈ 12400 µM) against Staphylococcus aureus [3]; 716 µg/mL (≈ 1550 µM) against Staphylococcus aureus [4]; 2870 µg/mL (≈ 6200 µM) in the test on Staphylococcus aureus [5]. The MBC was found to be 716 µg/mL (≈ 1550 µM) in the test on Escherichia coli [6], 1430 µg/mL (≈ 3100 µM) with Klebsiella pneumoniae [7] and 2870 µg/mL (≈ 6200 µM) with Escherichia coli [8]. Also, the minimal inhibitory concentration (MIC) against Trueperella pyogenes is 179 µg/mL (≈ 387 µM); in the test on Acremonium chrysogenum it was over 5740 µg/mL; with Candida albicans (ATCC 10231, 48 h), 358 µg/mL (≈ 774 µM); in the test on Salmonella enterica, 179 µg/mL (≈ 387 µM); in the test with Aspergillus restrictus, 1430 µg/mL (≈ 3100 µM); with Klebsiella pneumoniae [1], 45 µg/mL (≈ 97.3 µM). For the same compound, the minimum inhibitory concentration (MIC) came to 179 µg/mL (≈ 387 µM) with Proteus vulgaris; 179 µg/mL (≈ 387 µM) in the test with Bacillus subtilis; 358 µg/mL (≈ 774 µM) with Pseudomonas aeruginosa; 89 µg/mL (≈ 192 µM) against Aspergillus fumigatus; 1430 µg/mL (≈ 3100 µM) with Penicillium chrysogenum; 89 µg/mL (≈ 192 µM) against Saccharomyces cerevisiae (ATCC 9763, 48 h). Besides, the minimal inhibitory concentration (MIC) in the test on Bacillus cereus was found to be 89 µg/mL (≈ 192 µM); with Escherichia coli [2], 716 µg/mL (≈ 1550 µM); with Micrococcus luteus, 45 µg/mL (≈ 97.3 µM); with Staphylococcus aureus [3], 179 µg/mL (≈ 387 µM); against Staphylococcus aureus [4], 22 µg/mL (≈ 47.6 µM); in the test with Staphylococcus aureus [5] it was 22 µg/mL (≈ 47.6 µM). For the same compound, the MIC is 358 µg/mL (≈ 774 µM) in the test with Escherichia coli [6], 179 µg/mL (≈ 387 µM) in the test with Klebsiella pneumoniae [7] and 179 µg/mL (≈ 387 µM) against Escherichia coli [8]. The MFC with Acremonium chrysogenum was over 5740 µg/mL; in the test on Candida albicans (ATCC 10231, 48 h), 1430 µg/mL (≈ 3100 µM); against Aspergillus restrictus, 2870 µg/mL (≈ 6200 µM); in the test on Aspergillus fumigatus, 358 µg/mL (≈ 774 µM); with Penicillium chrysogenum, 2870 µg/mL (≈ 6200 µM); in the test with Saccharomyces cerevisiae (ATCC 9763, 48 h), 89 µg/mL (≈ 192 µM).

Regarding `CN(C)[C@@H]1C(O)=C(C(N)=O)C(=O)[C@@]2(O)C(O)=C3C(=O)c4c(O)cccc4[C@@](C)(O)[C@H]3C[C@@H]12` [TETRACYCLINE], the MIC with Trueperella pyogenes came out at 1.56 µg/mL (≈ 3.51 µM); in the test with Salmonella enterica, 0.195 µg/mL (≈ 0.439 µM); in the test on Klebsiella pneumoniae [1] it was 0.39 µg/mL (≈ 0.878 µM); with Proteus vulgaris, 0.39 µg/mL (≈ 0.878 µM); with Bacillus subtilis, 0.195 µg/mL (≈ 0.439 µM); with Pseudomonas aeruginosa it was 1.56 µg/mL (≈ 3.51 µM). In addition, the minimal inhibitory concentration (MIC) is 0.195 µg/mL (≈ 0.439 µM) against Bacillus cereus; 1.56 µg/mL (≈ 3.51 µM) in the test with Escherichia coli [2]; 0.39 µg/mL (≈ 0.878 µM) against Micrococcus luteus; 0.098 µg/mL (≈ 0.221 µM) in the test with Staphylococcus aureus [3]; 0.098 µg/mL (≈ 0.221 µM) with Staphylococcus aureus [4]; 0.098 µg/mL (≈ 0.221 µM) with Staphylococcus aureus [5]. Moreover, the MIC was 0.195 µg/mL (≈ 0.439 µM) with Escherichia coli [6], 0.39 µg/mL (≈ 0.878 µM) in the test with Klebsiella pneumoniae [7] and 1.56 µg/mL (≈ 3.51 µM) against Escherichia coli [8].

What is called MIC is the lowest concentration found to suppress growth. Lower therefore signals inhibition by little substance. By MBC is commonly meant the lowest tested concentration that kills the bacteria rather than only halting them. A high value points to weaker bactericidal potency. The term MFC denotes the lowest tested concentration that kills the fungus rather than only halting it.

The record behind these values is ChEMBL document CHEMBL1221283, “Antimicrobial phenolic abietane diterpene from Lycopus europaeus L. (Lamiaceae)” (2010).
